Test results published in patent publication US20190133128A1, “Fungicidal pyridazinones” (FMC Corporation, priority 2017, published 2019).

Legend:
Format in all cases: in vivo
[1] = tested on: Erysiphe graminis f. sp. tritici; assay: Test G: preventive spray on wheat seedlings, wheat powdery mildew, visual disease rating
Procedure, shortened: (§1)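 Preventive foliar spray of wheat seedlings to run-off, at 250 ppm or other indicated rate. Compounds dissolved in acetone (3% of final volume), suspended in 50/50 acetone–water with PEG400 surfactant. Disease rated visually.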

Phytophthora infestans = assay: whole plant or invertebrate; conditions: tomato seedlings
Zymoseptoria tritici = assay: Test E: preventive spray on wheat seedlings, wheat leaf blotch, visual disease rating
Procedure, shortened: as §1

Plasmopara viticola = assay: Test B: preventive spray on grape seedlings, grape downy mildew, disease rating
Text: General protocol for preparing test solutions for Tests AG: the test compounds were first dissolved in acetone in an amount equal to 3% of the final volume and then suspended at the desired concentration (in ppm) in acetone and purified water (50/50 mix by volume) containing the surfactant PEG400 (polyhydric alcohol esters). The resulting test suspensions were then used in Tests AG. Compounds were sprayed at a concentration of 250 ppm or other indicated rate to the point of run-off on the test plants. The test solution was sprayed to the point of run-off on grape seedlings. […] A dash (-) indicates no test results.

Botrytis cinerea = assay: Test C: preventive spray on tomato seedlings, gray mold, visual disease rating
Procedure, shortened: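 Compounds predissolved in acetone (3% of final volume), then suspended in 50/50 acetone/water with PEG400 surfactant. Sprayed preventively at 250 ppm or other indicated rate to run-off on tomato seedlings before Botrytis challenge; disease rated visually.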

Phakopsora pachyrhizi = assay: Test A: preventive spray on soybean seedlings, Asian soybean rust, visual disease rating
[2] = tested on: Puccinia recondita f. sp. tritici; assay: Test F: preventive spray on wheat seedlings, wheat leaf rust, visual disease rating
Procedure, shortened: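 Compounds were dissolved in acetone/water (50/50) with PEG400 surfactant and sprayed to run-off on wheat seedlings, at 250 ppm unless another rate is indicated. The next day, seedlings were inoculated with a Puccinia recondita f. sp. tritici spore suspension; disease was rated visually.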

[3] = 250 ppm, 100 = 100% disease control, 0 = no control

Structure (SMILES) | Test G disease control rating [1, 3] | Test D disease control rating (Phytophthora infestans; [3]) | Test E disease control rating (Zymoseptoria tritici; [3]) | Test B disease control rating (Plasmopara viticola; [3]) | Test C disease control rating (Botrytis cinerea; [3]) | Test A disease control rating (Phakopsora pachyrhizi; [3]) | Test F disease control rating [2, 3] | Test G disease control rating ([1]; 50 ppm) | Test D disease control rating (Phytophthora infestans; 50 ppm) | Test E disease control rating (Zymoseptoria tritici; 50 ppm) | Test B disease control rating (Plasmopara viticola; 50 ppm) | Test C disease control rating (Botrytis cinerea; 50 ppm) | Test A disease control rating (Phakopsora pachyrhizi; 50 ppm) | Test F disease control rating ([2]; 50 ppm)
CSc1cnn(C)c(=O)c1C(=O)Nc1ccc(OC(F)(F)F)cc1 [Compound 109] | 55% | 0% | 0% | 0% | 0% | 0% | 0% | – | – | – | – | – | – | –
Cn1ncc([S+](C)[O-])c(C(=O)Nc2ccc(OC(F)(F)F)cc2)c1=O (centres unmarked) [Compound 110] | – | – | – | – | – | – | – | 0% | 0% | 88% | 0% | 0% | 92% | 74%
Cn1ncc(S(C)(=O)=O)c(C(=O)Nc2ccc(OC(F)(F)F)cc2)c1=O [Compound 111] | 0% | 9% | 93% | 0% | 0% | 98% | 96% | – | – | – | – | – | – | –
Cn1ncc([O-])c(C(=O)Nc2ccc(S(F)(F)(F)(F)F)cc2)c1=O.[Na+] [Compound 113] | 90% | 81% | 79% | 96% | 0% | 73% | 94% | – | – | – | – | – | – | –
Cn1ncc(O)c(C(=O)Nc2cnc(Cl)cn2)c1=O [Compound 114] | 0% | 80% | 55% | 90% | 0% | 39% | 95% | – | – | – | – | – | – | –
COc1ccc(Cn2ncc(O)c(C(=O)Nc3ccc(OC(F)(F)F)cc3)c2=O)cc1 [Compound 115] | 0% | 0% | 26% | 0% | 0% | 0% | 68% | – | – | – | – | – | – | –
Cn1ncc(OS(=O)(=O)Cc2ccccc2)c(C(=O)Nc2ccc(OC(F)(F)F)cc2)c1=O [Compound 116] | 0% | 0% | 60% | 99% | 0% | 25% | 97% | – | – | – | – | – | – | –
COC(=O)c1ccc(NC(=O)c2c(O)cnn(C)c2=O)cc1 [Compound 121] | 0% | 99% | 14% | 86% | 0% | 0% | 80% | – | – | – | – | – | – | –
Cn1ncc(O)c(C(=O)Nc2ccccc2C(F)(F)F)c1=O [Compound 122] | 96% | 95% | 96% | 98% | 0% | 0% | 86% | – | – | – | – | – | – | –
Cn1ncc(O)c(C(=O)Nc2ccc(Cl)cc2F)c1=O [Compound 123] | 92% | 90% | 91% | 90% | 63% | 81% | 100% | – | – | – | – | – | – | –
CONc1cnn(C)c(=O)c1C(=O)Nc1ccc(OC(F)(F)F)cc1 [Compound 127] | 0% | 0% | 27% | 23% | 0% | 0% | 0% | – | – | – | – | – | – | –
Cn1ncc(OC/C=C/c2ccccc2)c(C(=O)Nc2ccc(OC(F)(F)F)cc2)c1=O [Compound 132] | 97% | 17% | 50% | 25% | 0% | 0% | 91% | – | – | – | – | – | – | –
Cn1ncc(O)c(C(=O)Nc2ccc(F)cc2Cl)c1=O [Compound 134] | 90% | 0% | 45% | 92% | 0% | 75% | 32% | – | – | – | – | – | – | –
CON(C)c1cnn(C)c(=O)c1C(=O)Nc1ccc(OC(F)(F)F)cc1 [Compound 135] | 0% | 0% | 2% | 27% | 0% | 0% | 0% | – | – | – | – | – | – | –
Cn1ncc(O)c(C(=O)Nc2ccc(C(F)(F)F)cc2Cl)c1=O [Compound 137] | 47% | 97% | 30% | 100% | 0% | 0% | 96% | – | – | – | – | – | – | –
Cn1ncc(O)c(C(=O)Nc2ccc(CC(F)(F)F)cc2)c1=O [Compound 140] | 27% | 96% | 88% | 100% | 0% | 0% | 99% | – | – | – | – | – | – | –
Cn1ncc(O)c(C(=O)Nc2ccc(OC(F)(F)F)cc2Cl)c1=O [Compound 142] | 98% | 92% | 77% | 99% | 26% | 71% | 99% | – | – | – | – | – | – | –
CCCC[N+](CCCC)(CCCC)CCCC.Cn1ncc([O-])c(C(=O)Nc2ccc(S(F)(F)(F)(F)F)cc2)c1=O [Compound 143] | 69% | 70% | 88% | 100% | 0% | 62% | 94% | – | – | – | – | – | – | –
Cn1ncc(O)c(C(=O)Nc2ccc(F)cc2F)c1=O [Compound 144] | 87% | 99% | – | 100% | 0% | 0% | 99% | – | – | – | – | – | – | –
CNc1cnn(C)c(=O)c1C(=O)Nc1ccc(OC(F)(F)F)cc1 [Compound 146] | 0% | 0% | 0% | 10% | 0% | 0% | 0% | – | – | – | – | – | – | –
Cn1ncc(O)c(C(=O)Nc2ccc(C(F)(F)F)cc2C(F)(F)F)c1=O [Compound 147] | 98% | 99% | 87% | 97% | 0% | 0% | 99% | – | – | – | – | – | – | –
Cn1ncc(O)c(C(=O)Nc2cccc(Oc3ccccc3)c2)c1=O [Compound 151] | 13% | 0% | – | 83% | 0% | 0% | 85% | – | – | – | – | – | – | –
